Measured values as given in ChEMBL document CHEMBL1201862, “PubChem BioAssay data set” (2004).
Calls of active or inactive are those of the source.

Experiments:
[1] = test system: Escherichia coli; assay: microbe, parasite or virus in culture
[2] = molecular target: Eukaryotic translation initiation factor 4H (Homo sapiens, UniProt Q15056); assay: eIF4H binding inhibition – biochemical, uHTS, fluorescence polarization, translation initiation inhibitor project, primary screen (AID 2012)
[3] = molecular target: T1, Heat shock 70 kDa protein 1A (Homo sapiens, UniProt P0DMV8); assay: small-molecule inhibition of Hsp70 – biochemical, TR-FRET (AID 786)
[4] = molecular target: T1, Heat shock 70 kDa protein 1A; assay: small molecules displacing fluorescent ligand from Hsp70 – biochemical, fluorescence polarization, primary screen (AID 583)
[5] = Counterscreen for IDE inhibitors: Luminescence-based cell-based high throughput dose response assay to identify compounds that are cytotoxic to HEK cells. [Related pubchem assays: 434962 (Primary screen (IDE inhibitors in singlicate)), 449730 (Counterscreen (Cytotoxicity in triplicate)), 435028 (Confirmation (IDE inhibitors in triplicate)) …; format: functional; details: HEK293
[6] = molecular target: Protein-tyrosine kinase 2-beta (Homo sapiens, UniProt Q14289);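 also: potency of inhibitors of PYK2 kinase phosphorylation of poly-GT substrate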
[7] = molecular target: T2, Insulin-degrading enzyme (Homo sapiens, UniProt P14735); assay: Dose Response: Fluorescence polarization-based cell-based high throughput dose response assay for inhibitors of insulin-degrading enzyme (IDE). [Related pubchem assays: 434962 (Primary screen (IDE inhibitors in singlicate)), 449730 (Counterscreen (Cytotoxicity in triplicate)), 435028 (Confirmation (IDE inhibitors in triplicate)), 434984 (Summary …; format: functional
T2 sequence (P14735 whole entry): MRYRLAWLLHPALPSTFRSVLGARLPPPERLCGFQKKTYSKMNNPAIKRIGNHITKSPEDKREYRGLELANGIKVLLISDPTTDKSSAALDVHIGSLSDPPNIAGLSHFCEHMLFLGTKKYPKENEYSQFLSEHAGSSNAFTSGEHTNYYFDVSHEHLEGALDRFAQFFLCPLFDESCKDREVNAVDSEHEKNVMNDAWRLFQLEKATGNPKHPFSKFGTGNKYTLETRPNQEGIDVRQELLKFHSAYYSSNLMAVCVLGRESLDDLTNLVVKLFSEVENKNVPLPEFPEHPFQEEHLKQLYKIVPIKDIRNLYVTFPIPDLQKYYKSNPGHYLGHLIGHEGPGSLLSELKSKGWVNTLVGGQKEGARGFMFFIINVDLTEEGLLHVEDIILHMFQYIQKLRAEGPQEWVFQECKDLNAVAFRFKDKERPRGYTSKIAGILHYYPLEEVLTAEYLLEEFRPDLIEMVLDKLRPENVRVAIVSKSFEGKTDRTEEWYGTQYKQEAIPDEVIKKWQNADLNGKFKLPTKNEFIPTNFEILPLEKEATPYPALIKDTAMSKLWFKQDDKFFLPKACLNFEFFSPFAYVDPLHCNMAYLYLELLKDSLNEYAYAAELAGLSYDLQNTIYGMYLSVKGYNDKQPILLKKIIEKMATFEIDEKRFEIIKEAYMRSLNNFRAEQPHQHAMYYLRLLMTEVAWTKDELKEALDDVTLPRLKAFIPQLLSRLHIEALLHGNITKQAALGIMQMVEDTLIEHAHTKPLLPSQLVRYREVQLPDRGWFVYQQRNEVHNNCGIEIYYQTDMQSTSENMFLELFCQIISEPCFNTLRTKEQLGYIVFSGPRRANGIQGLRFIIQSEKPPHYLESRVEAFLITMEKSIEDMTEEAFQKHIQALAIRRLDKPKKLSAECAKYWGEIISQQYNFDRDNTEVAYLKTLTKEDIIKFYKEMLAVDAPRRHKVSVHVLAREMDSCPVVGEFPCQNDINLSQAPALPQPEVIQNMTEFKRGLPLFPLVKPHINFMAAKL

[8] = molecular target: Polyadenylate-binding protein 1 (Homo sapiens, UniProt P11940); assay: blockers of PABP interaction with poly(A) – biochemical, fluorescence polarization, […] (AID 2014)
[9] = molecular target: T3, Tyrosine-protein phosphatase non-receptor type 7 (Homo sapiens, UniProt P35236); assay: Dose Response confirmation of compounds that inhibit HePTP. [Related pubchem assays (depositor defined):AID1059, AID1661, AID2085]; format: functional
T3 sequence (P35236 whole entry): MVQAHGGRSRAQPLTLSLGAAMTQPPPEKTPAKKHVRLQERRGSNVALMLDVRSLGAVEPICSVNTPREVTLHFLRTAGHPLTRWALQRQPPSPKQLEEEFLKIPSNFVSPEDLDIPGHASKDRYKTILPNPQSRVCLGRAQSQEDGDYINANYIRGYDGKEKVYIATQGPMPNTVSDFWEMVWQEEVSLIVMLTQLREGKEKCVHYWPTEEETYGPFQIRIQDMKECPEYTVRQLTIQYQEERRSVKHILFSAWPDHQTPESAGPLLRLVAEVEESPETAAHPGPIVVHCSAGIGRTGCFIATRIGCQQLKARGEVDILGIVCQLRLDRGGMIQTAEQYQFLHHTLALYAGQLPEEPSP

[10] = molecular target: T4, Dual specificity protein phosphatase 3 (Homo sapiens, UniProt P51452); assay: Dose Response Confirmation of compounds that inhibit VHR1 in Fluorescent Assay. [Related pubchem assays (depositor defined):AID1661, AID1878]; format: functional
[11] = molecular target: T4, Dual specificity protein phosphatase 3; assay: SAR VHR1 Fluorescent Assay for In Vitro dose response studies Set 3. [Related pubchem assays (depositor defined):AID1654, AID1661, AID1878]; format: functional
[12] = blockers of HIV-1 envelope-mediated cell-cell fusion – cherry-pick, dose response (AID 652057); format: functional, cell-based
[13] = viability loss in CEM21 cells – cell-based, CellTiter-Glo luminescence, cherry-picked, cytotoxicity control for viral fusion inhibitor project, dose response (AID 652042); format: functional;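 also: potency for signal decrease meaning cytotoxicity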
[14] = molecular target: T5, fMet-Leu-Phe receptor (Homo sapiens, UniProt P21462); assay: formyl peptide receptor binders – dose response (AID 519); format: functional
T5 sequence (P21462 whole entry): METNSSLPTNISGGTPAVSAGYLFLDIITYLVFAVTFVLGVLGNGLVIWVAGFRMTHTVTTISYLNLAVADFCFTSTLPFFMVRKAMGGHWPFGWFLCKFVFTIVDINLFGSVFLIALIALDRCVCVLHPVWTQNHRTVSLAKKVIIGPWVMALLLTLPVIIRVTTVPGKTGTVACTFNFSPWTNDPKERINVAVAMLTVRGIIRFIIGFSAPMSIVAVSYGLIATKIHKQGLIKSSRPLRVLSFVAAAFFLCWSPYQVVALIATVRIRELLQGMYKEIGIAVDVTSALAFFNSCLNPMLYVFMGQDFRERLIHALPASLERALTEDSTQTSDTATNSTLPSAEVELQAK

[15] = molecular target: T6, Replicative DNA helicase DnaB (Mycobacterium tuberculosis, UniProt P9WMR3); assay: DnaB intein splicing inhibitors, dose response, biochemical, cell-free fluorescence (AID 449749); format: functional
T6 sequence (P9WMR3 whole entry): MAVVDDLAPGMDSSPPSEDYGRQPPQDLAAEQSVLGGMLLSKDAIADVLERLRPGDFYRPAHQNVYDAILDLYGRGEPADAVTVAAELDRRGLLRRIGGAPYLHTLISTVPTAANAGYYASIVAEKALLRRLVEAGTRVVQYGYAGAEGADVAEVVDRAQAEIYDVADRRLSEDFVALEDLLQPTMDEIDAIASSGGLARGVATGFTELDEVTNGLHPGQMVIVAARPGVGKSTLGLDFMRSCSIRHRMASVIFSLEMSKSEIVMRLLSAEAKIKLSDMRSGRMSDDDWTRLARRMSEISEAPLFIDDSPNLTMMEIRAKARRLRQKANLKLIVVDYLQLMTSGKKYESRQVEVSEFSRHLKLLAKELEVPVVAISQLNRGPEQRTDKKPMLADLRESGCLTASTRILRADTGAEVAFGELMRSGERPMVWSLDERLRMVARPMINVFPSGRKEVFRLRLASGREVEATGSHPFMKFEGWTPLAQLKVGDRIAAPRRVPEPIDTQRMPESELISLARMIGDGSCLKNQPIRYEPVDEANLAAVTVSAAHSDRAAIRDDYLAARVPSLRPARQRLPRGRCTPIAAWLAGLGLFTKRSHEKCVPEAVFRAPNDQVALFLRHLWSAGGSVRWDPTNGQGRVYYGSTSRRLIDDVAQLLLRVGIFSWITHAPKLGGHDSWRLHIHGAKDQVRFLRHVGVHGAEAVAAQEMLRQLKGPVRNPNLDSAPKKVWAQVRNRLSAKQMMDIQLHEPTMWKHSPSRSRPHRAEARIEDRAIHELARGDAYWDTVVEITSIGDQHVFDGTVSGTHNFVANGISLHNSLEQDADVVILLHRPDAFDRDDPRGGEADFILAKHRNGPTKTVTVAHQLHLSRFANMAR

[16] = test system: Vero; assay: viability of Vero cells under compound – cytotoxicity control for flavivirus capping enzyme inhibitors (AID 588742); format: functional; details: Chlorocebus sabaeus
[17] = molecular target: Keap1/Nrf2 (Homo sapiens, UniProt Q14145); assay: disruptors of Keap1 binding to Nrf2 peptide – biochemical, fluorescence polarization, cherry-picked samples, dose response (AID 588683)
[18] = molecular target: T7, Protein RecA (Mycobacterium tuberculosis, UniProt P9WHJ3); assay: Fluorescence Cell-Free Homogeneous Dose Retest to Identify Inhibitors of RecA-Intein Splicing Activity. [Related pubchem assays (depositor defined):AID2097, AID2223, AID489010, AID492950]; format: functional
T7 sequence (P9WHJ3 whole entry): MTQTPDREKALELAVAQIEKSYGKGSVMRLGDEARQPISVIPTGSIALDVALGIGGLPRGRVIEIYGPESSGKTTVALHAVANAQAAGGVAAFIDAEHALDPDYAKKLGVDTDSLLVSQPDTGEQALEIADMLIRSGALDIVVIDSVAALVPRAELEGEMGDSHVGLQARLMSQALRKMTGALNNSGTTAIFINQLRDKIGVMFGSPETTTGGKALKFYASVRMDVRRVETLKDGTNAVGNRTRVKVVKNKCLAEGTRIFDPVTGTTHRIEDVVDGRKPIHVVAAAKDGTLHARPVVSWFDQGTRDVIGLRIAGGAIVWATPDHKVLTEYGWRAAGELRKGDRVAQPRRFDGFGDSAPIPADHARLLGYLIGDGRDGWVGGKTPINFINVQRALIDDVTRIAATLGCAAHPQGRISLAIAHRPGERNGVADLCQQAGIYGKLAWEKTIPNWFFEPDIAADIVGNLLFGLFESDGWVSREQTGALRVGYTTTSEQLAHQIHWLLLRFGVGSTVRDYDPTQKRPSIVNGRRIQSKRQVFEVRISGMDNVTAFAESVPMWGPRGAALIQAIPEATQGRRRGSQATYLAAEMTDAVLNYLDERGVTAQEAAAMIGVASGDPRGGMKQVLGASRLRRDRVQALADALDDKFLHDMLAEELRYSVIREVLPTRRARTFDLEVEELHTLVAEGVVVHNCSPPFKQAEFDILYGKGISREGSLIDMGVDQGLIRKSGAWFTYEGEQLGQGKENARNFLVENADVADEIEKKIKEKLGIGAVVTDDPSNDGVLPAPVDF

[19] = molecular target: Genome polyprotein (dengue virus type 2, UniProt P29990); assay: flavivirus cap methylation enzyme inhibition – biochemical, confirmation dose response, primary screen (AID 588689); format: functional
[20] = viability of uninfected HEp-2 cells – cell-based, HTS, cytotoxicity control for RSV inhibitor project, dose response (AID 2410); format: functional; details: human respiratory syncytial virus
[21] = test system: Vero; assay: cells; format: functional, cell-based; details: Chlorocebus sabaeus
[22] = test system: Vero; assay: cells; format: functional; details: Chlorocebus sabaeus
[23] = cells
[24] = test system: HEK293; assay: cells; details: Homo sapiens
[25] = test system: HEK293; assay: cells; details: Homo sapiens; remark: listed apart in the source

T1 sequence (P0DMV8 whole entry): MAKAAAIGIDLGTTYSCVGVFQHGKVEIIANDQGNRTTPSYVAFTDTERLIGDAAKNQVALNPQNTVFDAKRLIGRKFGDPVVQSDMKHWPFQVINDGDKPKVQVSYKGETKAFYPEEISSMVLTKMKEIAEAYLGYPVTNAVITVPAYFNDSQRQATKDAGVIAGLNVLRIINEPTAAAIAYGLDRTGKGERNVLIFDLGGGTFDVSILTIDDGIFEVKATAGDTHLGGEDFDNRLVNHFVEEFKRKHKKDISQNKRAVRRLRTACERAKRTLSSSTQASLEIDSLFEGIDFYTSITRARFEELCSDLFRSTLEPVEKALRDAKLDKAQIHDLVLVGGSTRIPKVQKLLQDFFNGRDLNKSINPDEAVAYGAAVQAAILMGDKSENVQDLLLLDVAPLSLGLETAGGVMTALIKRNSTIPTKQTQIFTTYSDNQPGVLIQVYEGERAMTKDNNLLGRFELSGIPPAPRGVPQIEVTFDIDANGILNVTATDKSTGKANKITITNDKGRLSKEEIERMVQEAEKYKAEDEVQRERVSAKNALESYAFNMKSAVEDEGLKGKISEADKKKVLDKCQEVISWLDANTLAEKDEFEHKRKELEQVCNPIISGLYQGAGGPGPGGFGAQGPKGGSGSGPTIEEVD
T4 sequence (P51452 whole entry): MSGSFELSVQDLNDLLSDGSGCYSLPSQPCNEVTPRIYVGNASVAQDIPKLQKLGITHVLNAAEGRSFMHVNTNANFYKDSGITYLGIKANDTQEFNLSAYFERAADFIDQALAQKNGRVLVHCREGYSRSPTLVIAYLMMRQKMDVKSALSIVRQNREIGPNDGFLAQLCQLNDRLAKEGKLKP
Genome polyprotein, sequence (P29990 2492-3391 limits assumed): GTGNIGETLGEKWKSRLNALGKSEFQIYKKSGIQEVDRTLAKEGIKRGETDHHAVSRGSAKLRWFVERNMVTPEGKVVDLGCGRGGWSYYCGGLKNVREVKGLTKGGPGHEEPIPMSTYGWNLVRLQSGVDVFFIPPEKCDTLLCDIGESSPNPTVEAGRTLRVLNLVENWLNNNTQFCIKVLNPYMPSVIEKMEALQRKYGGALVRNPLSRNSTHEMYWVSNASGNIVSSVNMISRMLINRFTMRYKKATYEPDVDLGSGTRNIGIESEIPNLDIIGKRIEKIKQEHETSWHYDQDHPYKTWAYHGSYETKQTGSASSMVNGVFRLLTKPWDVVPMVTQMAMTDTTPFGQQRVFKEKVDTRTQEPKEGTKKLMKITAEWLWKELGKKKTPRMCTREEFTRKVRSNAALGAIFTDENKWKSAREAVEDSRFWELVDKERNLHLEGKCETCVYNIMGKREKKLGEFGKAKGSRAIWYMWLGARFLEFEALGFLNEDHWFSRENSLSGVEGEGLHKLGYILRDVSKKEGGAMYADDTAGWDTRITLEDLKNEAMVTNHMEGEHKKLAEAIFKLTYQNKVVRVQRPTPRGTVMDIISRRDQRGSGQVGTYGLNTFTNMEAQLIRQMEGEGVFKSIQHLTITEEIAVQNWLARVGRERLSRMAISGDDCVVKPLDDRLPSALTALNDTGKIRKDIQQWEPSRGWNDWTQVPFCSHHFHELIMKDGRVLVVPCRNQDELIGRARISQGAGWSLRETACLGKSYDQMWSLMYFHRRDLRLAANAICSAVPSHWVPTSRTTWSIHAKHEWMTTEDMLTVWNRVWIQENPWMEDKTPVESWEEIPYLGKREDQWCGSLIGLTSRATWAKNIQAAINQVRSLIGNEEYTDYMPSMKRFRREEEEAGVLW
Protein-tyrosine kinase 2-beta, sequence (Q14289 whole entry): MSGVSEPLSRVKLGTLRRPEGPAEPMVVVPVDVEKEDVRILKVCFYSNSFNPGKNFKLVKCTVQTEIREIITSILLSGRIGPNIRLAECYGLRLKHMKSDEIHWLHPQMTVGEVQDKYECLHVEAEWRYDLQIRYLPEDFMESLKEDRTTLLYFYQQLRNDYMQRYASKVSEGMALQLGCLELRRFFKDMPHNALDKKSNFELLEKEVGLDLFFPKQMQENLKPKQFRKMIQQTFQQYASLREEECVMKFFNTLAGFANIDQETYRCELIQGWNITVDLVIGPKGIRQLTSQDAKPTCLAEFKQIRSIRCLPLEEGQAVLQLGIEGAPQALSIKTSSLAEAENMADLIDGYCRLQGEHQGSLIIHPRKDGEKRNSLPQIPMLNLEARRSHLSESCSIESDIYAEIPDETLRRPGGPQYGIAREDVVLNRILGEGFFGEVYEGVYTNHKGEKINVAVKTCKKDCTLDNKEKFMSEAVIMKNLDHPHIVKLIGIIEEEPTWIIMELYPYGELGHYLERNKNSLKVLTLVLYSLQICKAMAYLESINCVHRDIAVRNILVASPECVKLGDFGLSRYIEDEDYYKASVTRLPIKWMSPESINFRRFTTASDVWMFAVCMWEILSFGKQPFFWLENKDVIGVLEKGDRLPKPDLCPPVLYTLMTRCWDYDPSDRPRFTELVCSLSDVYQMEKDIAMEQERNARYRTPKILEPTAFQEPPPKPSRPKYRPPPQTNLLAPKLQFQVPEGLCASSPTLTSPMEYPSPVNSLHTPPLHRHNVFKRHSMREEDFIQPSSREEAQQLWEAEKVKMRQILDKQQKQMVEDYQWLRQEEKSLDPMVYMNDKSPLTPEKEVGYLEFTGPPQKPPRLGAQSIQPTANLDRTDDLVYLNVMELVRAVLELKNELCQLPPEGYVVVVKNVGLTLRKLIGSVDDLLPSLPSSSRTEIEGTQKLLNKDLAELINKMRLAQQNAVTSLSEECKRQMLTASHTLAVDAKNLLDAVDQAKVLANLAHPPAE
Polyadenylate-binding protein 1, sequence (P11940 whole entry): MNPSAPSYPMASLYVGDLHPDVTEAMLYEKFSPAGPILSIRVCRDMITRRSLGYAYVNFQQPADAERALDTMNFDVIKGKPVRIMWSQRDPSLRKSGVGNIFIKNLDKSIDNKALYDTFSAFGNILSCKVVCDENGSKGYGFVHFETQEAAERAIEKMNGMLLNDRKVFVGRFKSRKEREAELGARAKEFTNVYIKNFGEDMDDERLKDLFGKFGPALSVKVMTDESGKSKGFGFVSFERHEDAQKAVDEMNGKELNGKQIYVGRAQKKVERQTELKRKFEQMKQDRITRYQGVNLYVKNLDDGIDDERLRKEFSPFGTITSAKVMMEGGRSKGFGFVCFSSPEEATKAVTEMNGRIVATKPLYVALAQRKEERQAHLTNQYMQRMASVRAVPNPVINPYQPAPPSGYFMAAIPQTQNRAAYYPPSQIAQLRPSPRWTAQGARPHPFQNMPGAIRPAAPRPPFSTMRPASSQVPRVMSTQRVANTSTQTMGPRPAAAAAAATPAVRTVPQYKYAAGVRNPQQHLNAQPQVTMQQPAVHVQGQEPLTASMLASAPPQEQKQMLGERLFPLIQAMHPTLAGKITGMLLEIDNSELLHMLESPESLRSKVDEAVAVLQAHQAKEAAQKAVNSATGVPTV
Keap1/Nrf2, sequence (Q16236 whole entry): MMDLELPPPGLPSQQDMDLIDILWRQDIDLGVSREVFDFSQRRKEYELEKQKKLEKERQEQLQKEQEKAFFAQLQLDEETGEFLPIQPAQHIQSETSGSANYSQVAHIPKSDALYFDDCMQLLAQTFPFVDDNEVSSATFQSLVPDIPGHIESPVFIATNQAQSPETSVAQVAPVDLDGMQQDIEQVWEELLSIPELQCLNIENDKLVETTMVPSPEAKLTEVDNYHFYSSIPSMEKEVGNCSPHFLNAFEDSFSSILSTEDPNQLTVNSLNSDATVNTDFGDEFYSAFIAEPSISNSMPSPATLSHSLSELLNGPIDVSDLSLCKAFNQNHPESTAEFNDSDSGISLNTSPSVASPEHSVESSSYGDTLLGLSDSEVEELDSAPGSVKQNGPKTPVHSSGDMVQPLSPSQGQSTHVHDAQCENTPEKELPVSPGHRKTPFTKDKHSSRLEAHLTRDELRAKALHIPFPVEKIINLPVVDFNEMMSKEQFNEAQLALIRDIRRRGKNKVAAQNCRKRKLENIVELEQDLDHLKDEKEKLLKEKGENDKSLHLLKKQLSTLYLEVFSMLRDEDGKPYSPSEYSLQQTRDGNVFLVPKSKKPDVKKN
Keap1/Nrf2, sequence (Q14145 whole entry): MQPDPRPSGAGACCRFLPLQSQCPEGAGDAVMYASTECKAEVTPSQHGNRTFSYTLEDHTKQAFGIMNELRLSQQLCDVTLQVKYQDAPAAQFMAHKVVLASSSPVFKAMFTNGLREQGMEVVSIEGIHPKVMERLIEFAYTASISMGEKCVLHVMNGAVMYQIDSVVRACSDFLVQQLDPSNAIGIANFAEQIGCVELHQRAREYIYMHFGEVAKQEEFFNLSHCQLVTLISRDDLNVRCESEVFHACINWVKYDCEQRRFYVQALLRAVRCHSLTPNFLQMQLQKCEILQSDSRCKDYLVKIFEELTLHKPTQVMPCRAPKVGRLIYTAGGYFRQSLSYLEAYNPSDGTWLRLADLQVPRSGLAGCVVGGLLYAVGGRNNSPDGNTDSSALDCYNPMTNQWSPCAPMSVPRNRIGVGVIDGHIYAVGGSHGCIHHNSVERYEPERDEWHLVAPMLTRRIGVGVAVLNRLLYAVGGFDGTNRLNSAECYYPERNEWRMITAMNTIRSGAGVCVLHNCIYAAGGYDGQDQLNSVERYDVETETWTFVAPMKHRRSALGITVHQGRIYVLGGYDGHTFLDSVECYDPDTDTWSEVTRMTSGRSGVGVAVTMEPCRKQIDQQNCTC

SMILES: CCCC(C(=O)NNC(=O)c1cc(C)oc1C)c1ccccc1 (stereo not given)
- AC50 [1]: 31.7 µM (active)

SMILES: COc1ccc(-c2nnc(Nc3nc4c(OC)cccc4s3)o2)cc1
- IC50 [2]: 12.5 µM (active)
- IC50 [3]: > 100 µM (not active)
- IC50 [4]: > 100 µM (not active)
- IC50 [5]: 17.1 µM (not active)
- IC50 [6]: 9.06 µM (active)
- IC50 [7]: > 55.9 µM (not active)
- IC50 [8]: > 100 µM (inactive)
- IC50 [9]: 6.08 µM (active)
- IC50 [10]: 1.78 µM (active)
- IC50 [11]: 3.61 µM (active)
- AC50 [12]: 5.28 µM (active)
- AC50 [13]: 52.2 µM (active)
- Ki [14]: > 66.7 µM (inactive)

SMILES: O=C1/C(=N\S(=O)(=O)c2ccc([N+](=O)[O-])cc2)C(Cl)=C(O)c2ccccc21
- AC50 [15]: 6.49 µM (active)
- CC50 [16]: 34.2 µM (active)
- AC50 [17]: > 52 µM (inactive)
- EC50 [18]: 1.26 µM (active)
- IC50 [19]: 76.9 µM (active)

SMILES: CC1Cc2ccccc2N1S(=O)(=O)c1cccc(C(=O)N2CCN(c3ncccn3)CC2)c1 (stereo not given)
- CC50 [20]: 3.41 µM (active)
- IC50 [21]: 2.15 µM (active)
- CC50 [22]: > 25 µM (active)
- IC50 [23]: 1.01 µM (active)

SMILES: Cc1nn2c(nc(N3CCCCC3)c3ccccc32)c1C=O
- EC50 [24]: > 59.7 µM (inactive)
- EC50 [25]: > 59.7 µM (inactive)
